Assay results as given in patent US20210244720A1, “Therapeutic Tyrosine Kinase Inhibitors for Relapsing Multiple Sclerosis (RMS)” (Genzyme Corporation, priority 2020, published 2021).

System: participants with relapsing multiple sclerosis (RMS)
Assay: Phase 2b study in RMS: safety and tolerability (adverse events, laboratory tests, ECG, vital signs)
[1] = 5 mg, 12 weeks treatment, n = 33
[2] = 5 mg, BTK inhibitor treatment period, safety population, N = 32
[3] = 5 mg, BTK inhibitor treatment period, safety population, N = 33
[4] = 15 mg, 12 weeks treatment, n = 32
[5] = 15 mg, BTK inhibitor treatment period, safety population, N = 32
[6] = 30 mg, 12 weeks treatment, n = 33
[7] = 30 mg, BTK inhibitor treatment period, safety population, N = 33
[8] = 60 mg, 12 weeks treatment, n = 32

C=CC(=O)N1CCC[C@@H](n2c(=O)n(-c3ccc(Oc4ccccc4)cc3)c3c(N)nccc32)C1 [the BTK inhibitor, (R)-1-(1-acryloylpiperidin-3-yl)-4-amino-3-(4-phenoxyphenyl)-1H-imidazo[4,5-c]pyridin-2(3H)-one]
Accidental overdose, patients n (%) [1]: 0 | Alanine aminotransferase increased, patients n (%) [1]: 1 (3%) | Alopecia, patients n (%) [1]: 1 (3%) | Back pain, patients n (%) [1]: 1 (3%) | Gastroenteritis, patients n (%) [1]: 1 (3%) | Headache, patients n (%) [1]: 1 (3%) | Muscle spasticity, patients n (%) [1]: 0 | Nasopharyngitis, patients n (%) [1]: 1 (3%) | Oropharyngeal pain, patients n (%) [1]: 1 (3%) | Peripheral edema, patients n (%) [1]: 2 (6%) | Respiratory tract infection, patients n (%) [1]: 0 | Upper respiratory tract infection, patients n (%) [1]: 2 (6%) | Participants with any TEAE, % [2]: (50.0) % | Participants with any treatment-related TEAE, % [2]: (18.8) % | Participants with treatment emergent SAE(s), Any class, n(%) [2]: 0 | Participants with treatment emergent SAE(s), Multiple sclerosis relapse, n(%) [2]: 0 | Participants with treatment emergent SAE(s), NERVOUS SYSTEM DISORDERS, n(%) [2]: 0 | AESI, Alanice aminotransferase increased, n (%) [3]: 0 | AESI, Investigations, n (%) [3]: 0 | Any AESI, n (%) [3]: 0 | AESI, Alanice aminotransferase increased, n (%) (5 mg, Weeks 1 to 4, N = 16): 0 | AESI, Investigations, n (%) (5 mg, Weeks 1 to 4, N = 16): 0 | Any AESI, n (%) (5 mg, Weeks 1 to 4, N = 16): 0 | Participants with any TEAE, % (5 mg, Weeks 1 to 4, N = 32): (25.0) % | Participants with any treatment-related TEAE, % (5 mg, Weeks 1 to 4, N = 32): (12.5) % | Any AE, % (5 mg, Weeks 1 to 4, n = 16): (31.3%) | Any treatment-related AE, % (5 mg, Weeks 1 to 4, n = 16): (12.5%) | Any AE, % (5 mg, Weeks 1 to 12, n = 33): (57.6) % | Any treatment-related AE, % (5 mg, Weeks 1 to 12, n = 33): (15.2) % | Accidental overdose, patients n (%) [4]: 0 | Alanine aminotransferase increased, patients n (%) [4]: 0 | Alopecia, patients n (%) [4]: 1 (3%) | Back pain, patients n (%) [4]: 1 (3%) | Gastroenteritis, patients n (%) [4]: 0 | Headache, patients n (%) [4]: 3 (9%) | Muscle spasticity, patients n (%) [4]: 0 | Nasopharyngitis, patients n (%) [4]: 0 | Oropharyngeal pain, patients n (%) [4]: 0 | Peripheral edema, patients n (%) [4]: 0 | Respiratory tract infection, patients n (%) [4]: 1 (3%) | Upper respiratory tract infection, patients n (%) [4]: 2 (6%) | AESI, Alanice aminotransferase increased, n (%) [5]: 0 | AESI, Investigations, n (%) [5]: 0 | Any AESI, n (%) [5]: 0 | Participants with any TEAE, % [5]: (56.3) % | Participants with any treatment-related TEAE, % [5]: (9.4) % | Participants with treatment emergent SAE(s), Any class, n(%) [5]: 0 | Participants with treatment emergent SAE(s), Multiple sclerosis relapse, n(%) [5]: 0 | Participants with treatment emergent SAE(s), NERVOUS SYSTEM DISORDERS, n(%) [5]: 0 | AESI, Alanice aminotransferase increased, n (%) (15 mg, Weeks 1 to 4, N = 16): 0 | AESI, Investigations, n (%) (15 mg, Weeks 1 to 4, N = 16): 0 | Any AESI, n (%) (15 mg, Weeks 1 to 4, N = 16): 0 | Participants with any TEAE, % (15 mg, Weeks 1 to 4, N = 32): (43.8) % | Participants with any treatment-related TEAE, % (15 mg, Weeks 1 to 4, N = 32): (3.1) % | Any AE, % (15 mg, Weeks 1 to 4, n = 16): (18.9%) | Any AE, % (15 mg, Weeks 1 to 12, n = 32): (53.1) % | Any treatment-related AE, % (15 mg, Weeks 1 to 12, n = 32): (3.1) % | ALT level of the AESI participant (30 mg group, Week 8 visit): 105 U/L | ALT level of the AESI participant (30 mg group, within 4 days after Week 8 visit): 32 U/L | AESIs (alanine aminotransferase increased >3×ULN) (30 mg treatment period): 1 | Accidental overdose, patients n (%) [6]: 0 | Alanine aminotransferase increased, patients n (%) [6]: 1 (3%) | Alopecia, patients n (%) [6]: 0 | Back pain, patients n (%) [6]: 2 (6%) | Gastroenteritis, patients n (%) [6]: 0 | Headache, patients n (%) [6]: 1 (3%) | Muscle spasticity, patients n (%) [6]: 1 (3%) | Nasopharyngitis, patients n (%) [6]: 1 (3%) | Oropharyngeal pain, patients n (%) [6]: 1 (3%) | Peripheral edema, patients n (%) [6]: 0 | Respiratory tract infection, patients n (%) [6]: 1 (3%) | Upper respiratory tract infection, patients n (%) [6]: 1 (3%) | AESI, Alanice aminotransferase increased, n (%) [7]: 1 (3.0) | AESI, Investigations, n (%) [7]: 1 (3.0) | Any AESI, n (%) [7]: 1 (3.0) | Participants with any TEAE, % [7]: (51.5) % | Participants with any severe TEAE, % [7]: (3.0) % | Participants with any treatment emergent SAE, % [7]: (3.0) % | Participants with any treatment-related TEAE, % [7]: (12.1) % | Participants with treatment emergent SAE(s), Any class, n(%) [7]: 1 (3.0) | Participants with treatment emergent SAE(s), Multiple sclerosis relapse, n(%) [7]: 1 (3.0) | Participants with treatment emergent SAE(s), NERVOUS SYSTEM DISORDERS, n(%) [7]: 1 (3.0) | AESI, Alanice aminotransferase increased, n (%) (30 mg, Weeks 1 to 4, N = 16): 0 | AESI, Investigations, n (%) (30 mg, Weeks 1 to 4, N = 16): 0 | Any AESI, n (%) (30 mg, Weeks 1 to 4, N = 16): 0 | Participants with any TEAE, % (30 mg, Weeks 1 to 4, N = 33): (42.4) % | Participants with any treatment-related TEAE, % (30 mg, Weeks 1 to 4, N = 33): (12.1) % | Any AE, % (30 mg, Weeks 1 to 4, n = 16): (12.5%) | Any AE, % (30 mg, Weeks 1 to 12, n = 33): (54.5) % | Any treatment-related AE, % (30 mg, Weeks 1 to 12, n = 33): (12.1) % | ALT level of the AESI participant (60 mg group, Week 4 visit, ULN 34 U/L): 107 U/L | ALT level of the AESI participant (60 mg group, Week 12): 28 U/L | AESIs (alanine aminotransferase increased >3×ULN) (60 mg treatment period): 1 | Accidental overdose, patients % [8]: (9%) | Accidental overdose, patients n [8]: 3 | Alanine aminotransferase increased, patients % [8]: (3%) | Alanine aminotransferase increased, patients n [8]: 1 | Alopecia, patients % [8]: (3%) | Alopecia, patients n [8]: 1 | Back pain, patients n [8]: 0 | Gastroenteritis, patients % [8]: (6%) | Gastroenteritis, patients n [8]: 2 | Headache, patients % [8]: (13%) | Headache, patients n [8]: 4 | Muscle spasticity, patients % [8]: (6%) | Muscle spasticity, patients n [8]: 2
